# Experimental data: patent US20240041899A1, “SOLID PREPARATION” (ASKA Pharmaceutical Co., Ltd., priority 2020, published 2024)
# Legend:
# [1] = system: lower urinary tract obstruction model of rats (female); assay: Test Example 1: urination function in lower urinary tract obstruction model of female rats; type: in vivo; conditions: oral once a day 2 weeks, Compound A 10 mg/kg
# Source text: A lower urinary tract obstruction model of rats was used as a test system. A test substance was orally administered to the lower urinary tract obstruction model repeatedly over two (2) weeks to examine the action on the urination function in the lower urinary tract obstruction model.
# More specifically, the rats (female, Crl:CD(SD), 8-week-old; Charles River Laboratories Japan, Inc.) were operated to form lower urinary tract obstruction and repeatedly received oral administration of the test substance at a frequency of once a day over two (2) weeks. After the completion of the administration, each rat was subjected to bladder catheterization under anesthesia, cystometry under no anesthesia, then cystometry under urethane anesthesia, and euthanasia under deep anesthesia, and the tissues (bladder, kidney) of the rat were extracted or surgically removed. As a normal group, the rats without operation for forming lower urinary tract obstruction were used.
# The test system, the test substances, and the dosage are as follows. • Normal group: 0.5 v/v % Polysorbate 80 solution, 10 mL/kg (n=6) • Solvent group (control group): 0.5 v/v % Polysorbate 80 solution, 10 mL/kg (n=15) • Group A: Compound A, 10 mg/kg (n=15) • Group B3: Compound B, 3 mg/kg (n=7) • Group B10: Compound B, 10 mg/kg (n=7)
# After urination, the residual urine was aspirated from the outlet end of the catheter placed in the bladder to measure the volume (mL) of the residual urine.
# After urination, the weight of the voided urine was measured to determine the voided volume (g=mL), and then the urination efficiency was calculated by the following equation: Urination efficiency (%)=[(Voided volume (mL))/(Voided volume (mL)+Residual urine volume (mL))]×100
# Bladder capacity (mL)=Voided volume (mL)+Residual urine volume (mL)
# Moreover, the wet weight of the extracted bladder and that of the extracted kidney were measured.
# [2] = system: rats having the urination disorder associated with diabetes; assay: Test Example 6: urination disorder model associated with streptozocin-induced diabetes, compound A versus compound C; type: in vivo; conditions: STZ diabetes model
# Procedure: As described below, a model of a urination disorder associated with streptozocin-induced diabetes was prepared as a urination disorder model in accordance with Test Example 4 to evaluate the effects of the compound A and the compound C on a urination disorder. This model has no benign prostatic hyperplasia and is a model of a urination disorder associated with neuropathy and smooth muscle contraction disorder.
# The body weights of Rats (male, Crl:CD(SD), 5-week-old; Charles River Laboratories Japan, Inc.) were measured. On the basis of the body weight, the rats were grouped or divided into two (2) groups. The day after the rats were grouped, a first group received intraperitoneal administration of a citrate buffer (pH 4.5) (10 mL/kg) having a concentration of 0.1 mmol/L, and a second group received intraperitoneal administration of streptozocin (STZ; Sigma-Aldrich) (50 mg/kg). Streptozocin (STZ) was administered in the form of a solution of streptozocin having a concentration of 5 mg/mL in the citrate buffer.
# About one (1) week after streptozocin (STZ) was administered, the body weight and the fasting blood glucose were measured. In the streptozocin (STZ) administration group (the second group), individuals having a fasting blood glucose level of not less than 300 mg/dL were used as animals with induced diabetes. These animals with induced diabetes are a model having no abnormality of the prostate (having no benign prostatic hyperplasia). On the basis of the body weight and the fasting blood glucose level, the animals (models) with induced diabetes were grouped or divided into three (3) groups by randomized, multivariable block allocation.
# To the three model groups with induced diabetes, a 0.5 v/v % Polysorbate 80 solution (0.5% P) (10 mL/kg), the compound A (3 mg/kg), and the compound C (dutasteride) (0.3 mg/kg) were orally administered, respectively, wherein the administration schedule in all groups was a frequency of once a day, only on weekdays, over four (4) weeks. Moreover, to the above-mentioned first group, a 0.5 v/v % Polysorbate 80 solution (0.5% P) (10 mL/kg) was orally administered in the same administration schedule (normal group). On the last day of administration, a cannula was inserted into and secured to the dome of the bladder under isoflurane anesthesia, and cystometry (Cystometogram, CMG) was conducted in the order of under awake condition and under urethane anesthesia to measure the intravesical pressure, the voided volume, and the residual urine volume. After the completion of the measurement, the blood was collected under deep isoflurane anesthesia, and then the prostate (ventral prostate, dorsolateral prostate) was extracted and each was weighed. Moreover, the blood glucose level in the collected blood was measured.
# Normal group: citrate buffer 10 mL/kg (intraperitoneal administration), 0.5% P 10 mL/kg (oral administration) (n=10) • Solvent group (control group): STZ 50 mg/kg (intraperitoneal administration), 0.5% P 10 mL/kg (oral administration) (n=10) • Group A3: STZ 50 mg/kg (intraperitoneal administration), Compound A 3 mg/kg (oral administration) (n=10) • Group C0.3: STZ 50 mg/kg (intraperitoneal administration), Compound C (dutasteride) 0.3 mg/kg (oral administration) (n=10)
# Urination parameter: In the same manner as in Test Example 4, the residual urine volume (mL) and the urination efficiency (%) were determined as urination parameters in each urination, and the average value of two measurements was taken as a measured value of each individual.
# Prostate weight: In the same manner as in Test Example 4, the weight of the prostate (ventral prostate, dorsolateral prostate, and whole) was converted to a tissue weight per 100 g of the body weight. For Group A3, which received the compound A, and Group C0.3, which received the compound C, the inhibition rate of the weight of the prostate relative to the weight of the prostate in the solvent group was calculated (with one decimal place). […]
# [3] = female rats, lower urinary tract obstruction, vs control group
# [4] = Compound A 3 mg/kg, in comparison with the solvent group (p<0.05)
# [5] = Compound A oral 3 mg/kg, 4 weeks
# [6] = Compound A oral 3 mg/kg, relative to solvent group
compound,measurement,setting,value
"CC(=O)O[C@]1(C(C)=O)C[C@@H](O)[C@H]2[C@@H]3C=C(Cl)C4=CC(=O)OC[C@]4(C)[C@H]3CC[C@@]21C [Compound A, 17α-acetoxy-6-chloro-15β-hydroxy-2-oxa-4,6-pregnadiene-3,20-dione]",survival rate,[1]; female lower urinary tract obstruction rats,no decrease
same,wet weights of the bladder and the kidney,"[1]; female rats, lower urinary tract obstruction",in the direction of significantly inhibiting the increase
same,residual urine volume,"[1]; female rats, lower urinary tract obstruction, vs control (solvent) group",significantly decreased
same,bladder capacity,[1]; [3],significantly decreased
same,urination efficiency,[1]; [3],increased
same,therapeutic effect on diabetes,[2]; Compound A 3 mg/kg,no therapeutic effect
same,"weights of the ventral prostate, the dorsolateral prostate, and the whole prostate","[2]; Compound A 3 mg/kg, compared with the solvent group (P<0.05)",significant decrease
same,"residual urine volume, cystometry (CMG) under awake condition",[2]; [4],significantly decreased
same,"urination efficiency, cystometry (CMG) under awake condition",[2]; [4],significantly improved
same,bladder contraction force on urination by nomogram analysis,"[2]; Compound A 3 mg/kg, in comparison with the solvent group and Group C0.3",strong bladder contraction force
same,effect on the blood glucose level,"[2]; Compound A 3 mg/kg, vs solvent group",did not statistically affect
same,Blood glucose level,[2]; [5],972.4 ± 312.3 mg/dL
same,"Prostate weight, dorsolateral prostate",[2]; [5],38.8 ± 4.2 mg/100 g body weight
same,"Prostate weight, ventral prostate",[2]; [5],61.2 ± 12.4 mg/100 g body weight
same,"Prostate weight, whole",[2]; [5],99.9 ± 15.5 mg/100 g body weight
same,Dorsolateral prostate atrophy rate,[2]; [6],(40.2%)
same,Ventral prostate atrophy rate,[2]; [6],(40.0%)
same,Whole prostate atrophy rate,[2]; [6],(40.1%)
